This assay deals with T1, mutant form of the human GPR119 receptor (Homo sapiens, UniProt Q8TDV5, S329A/T327A).
T1 construct: expressed in transfected cells
T1 sequence (Q8TDV5 with tags, fused parts or gaps T327A/S329A): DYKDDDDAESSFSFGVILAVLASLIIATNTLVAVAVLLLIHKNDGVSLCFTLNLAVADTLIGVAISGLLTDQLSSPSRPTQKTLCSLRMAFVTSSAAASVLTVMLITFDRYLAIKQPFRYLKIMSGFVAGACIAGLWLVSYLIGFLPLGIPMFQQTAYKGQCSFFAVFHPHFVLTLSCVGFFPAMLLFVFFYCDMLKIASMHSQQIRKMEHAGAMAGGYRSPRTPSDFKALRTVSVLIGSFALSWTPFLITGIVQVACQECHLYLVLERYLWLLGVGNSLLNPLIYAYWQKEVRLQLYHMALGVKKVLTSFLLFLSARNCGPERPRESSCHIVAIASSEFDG
Put plainly: LANCE cAMP-384 assay in HEK293 cells stably expressing a mutant form of the human GPR119 receptor. The following applies: cAMP accumulation, GPR119 stable HEK293 cells, LANCE kit, 20 min at 37° C. The class given is cell-based. How it is done: Quantitative detection of cAMP accumulation from cells expressing human GPR119 receptor is achieved using Perkin Elmer's LANCE cAMP-384 Kit (Cat#AD0264) according to the manufacturer's protocol. Briefly, HEK293 cells stably expressing a mutant form of the human GPR119 receptor as assay tool (Methionine 1 replaced with the amino acid sequence […], and T327 & S329 changed to alanines; SEQ ID No. 1) are grown to 50-70% confluency in cell culture media (DMEM, 10% heat inactivated Fetal Bovine Serum, 50 I.U./mL penicillin, 50 μg/mL streptomycin, 10 mM HEPES, 20 μg/mL G418 Sulfate). On the day of the assay, GPR119 stable HEK293 cells are lifted from the tissue culture plate and 1000 cells/well are incubated along with various concentrations of test compounds for 20 min at 37° C. Detection Buffer (50 mM HEPES, 10 mM calcium chloride, 0.35% Triton X-100, 1 mg/mL BSA) containing cAMP-specific antibody is then added to all wells and allowed to equilibrate in the dark for 10 minutes at room temperature. Upon equilibration, Detection Buffer containing europium-labeled cAMP tracer complex is added to all wells and allowed to react for 1 hour at room temperature. After 1 hour, bound europium-labeled cAMP tracer is measured using a Perkin Elmer Envision plate reader. The quantity of cAMP generated in each well is derived from a standard curve. EC50 is determined using nonlinear regression analysis of the cAMP values over a range of agonist concentration (12 points spanning the range from 30 μM to 100 pM).
For orientation: TR-FRET usually uses a lanthanide donor and a delayed reading to cut background.
With `CCc1cnc(N2CC[C@@H](N(C(=O)c3cnc(-n4ccnc4C)cn3)C3CC3)[C@@H](F)C2)nc1` (single isomer, unassigned) [Example 90], it took 44 nM to reach a half-maximal effect (EC50).
As to `CCc1cnc(N2CC[C@@H](N(C(=O)c3cnc(-n4cncn4)nc3)C3CC3)[C@@H](F)C2)nc1` (single isomer, unassigned) [Example 91], the EC50 (commonly the concentration that produces a half-maximal response) is 202 nM.
As for `CCc1cnc(N2CC[C@@H](N(C(=O)c3cnc(-n4cncn4)cn3)C3CC3)[C@@H](F)C2)nc1` (single isomer, unassigned) [Example 92], the EC50 is 609 nM.
`Cc1ncnn1-c1ccc(C(=O)N(C2CC2)[C@@H]2CCN(c3ncc(Cl)cn3)C[C@@H]2F)cn1` (single isomer, unassigned) [Example 93]: the EC50 was found to be 24 nM.
`Cc1nnnn1-c1ccc(C(=O)N(C2CC2)[C@@H]2CCN(c3ncc(Cl)cn3)C[C@@H]2F)cn1` (single isomer, unassigned) [Example 94] displayed an EC50 of 8 nM.
To `Cc1nccn1-c1ncc(C(=O)N(C2CC2)[C@@H]2CCN(c3ncc(Cl)cn3)C[C@@H]2F)cn1` (single isomer, unassigned) [Example 95] belongs 7 nM; to `O=C(c1cnc(-n2cncn2)nc1)N(C1CC1)[C@@H]1CCN(c2ncc(Cl)cn2)C[C@@H]1F` (single isomer, unassigned) [Example 96], 65 nM; to `Cc1nccn1-c1ccc(C(=O)N(C2CC2)[C@@H]2CCN(c3ncc(Cl)cn3)C[C@@H]2F)cn1` (single isomer, unassigned) [Example 97], 32 nM.
Regarding `Cc1ncn(-c2cnc(C(=O)N(C3CC3)[C@@H]3CCN(c4ncc(Cl)cn4)C[C@@H]3F)cn2)n1` (single isomer, unassigned) [Example 98], the EC50 came out at 14 nM.
Take `Cc1nccn1-c1cnc(C(=O)N(C2CC2)[C@@H]2CCN(c3ncc(Cl)cn3)C[C@@H]2F)cn1` (single isomer, unassigned) [Example 99]: the midpoint of the response, the EC50, lay at 18 nM.
On to `Cc1ncnn1-c1ncc(C(=O)N(C2CC2)[C@@H]2CCN(c3ncc(Cl)cn3)C[C@@H]2F)cn1` (single isomer, unassigned) [Example 100], for which the midpoint of the response, the EC50, lay at 136 nM.
`Cc1nccn1-c1ncc(C(=O)N(C2CC2)[C@@H]2CCN(c3ncc(C(F)(F)F)cn3)C[C@@H]2F)cn1` (single isomer, unassigned) [Example 101] yielded an EC50 of 5 nM.
As for `O=C(c1cnc(-n2cncn2)nc1)N(C1CC1)[C@@H]1CCN(c2ncc(C(F)(F)F)cn2)C[C@@H]1F` (single isomer, unassigned) [Example 102], the response was half-maximal at 50 nM (EC50).
Next, `Cc1ncnn1-c1ncc(C(=O)N(C2CC2)[C@@H]2CCN(c3ccc(C(F)(F)F)cn3)C[C@@H]2F)cn1` (single isomer, unassigned) [Example 103]: 391 nM.
Consider `CCc1cnc(N2CC[C@@H](N(C(=O)c3cn(-c4ccc(C#N)cn4)cn3)C3CC3)[C@@H](F)C2)nc1` (single isomer, unassigned) [Example 107], for which the EC50 is 188 nM.
As to `CCc1cnc(N2CC[C@@H](N(C(=O)c3cn(-c4ccc(S(C)(=O)=O)cc4F)cn3)C3CC3)[C@@H](F)C2)nc1` (single isomer, unassigned) [Example 108], the EC50 is 82 nM.
`CCc1cnc(N2CCC(N(C(=O)c3cn(-c4ccc(C#N)cc4F)cn3)C3CC3)C(F)C2)nc1` (single isomer, unassigned) [Example 109]: the response was half-maximal at 53 nM (EC50).
Next, `CCc1cnc(N2CC[C@@H](N(C(=O)c3cn(-c4ccc(C#N)cn4)c(C)n3)C3CC3)[C@@H](F)C2)nc1` (single isomer, unassigned) [Example 110]: 363 nM; `CCc1cnc(N2CC[C@@H](N(C(=O)c3cn(-c4ccc(S(C)(=O)=O)cc4F)c(C)n3)C3CC3)[C@@H](F)C2)nc1` (single isomer, unassigned) [Example 111]: 1610 nM.
`CCc1cnc(N2CC[C@@H](N(C(=O)c3cn(-c4ccc(C#N)cc4F)c(C)n3)C3CC3)[C@@H](F)C2)nc1` (single isomer, unassigned) [Example 112] had an EC50 of 789 nM.
In turn, `Cc1nccn1-c1ccc(C(=O)N(C2CC2)C2CCN(c3ncc(C(F)(F)F)cc3F)CC2)cn1` [Example 43] displayed an EC50 of 73 nM.
As to `Cc1ncnn1-c1ccc(C(=O)N(C2CC2)C2CCN(c3ncc(C(F)(F)F)cc3F)CC2)cn1` [Example 44], the EC50 stood at 22 nM.
In turn, `O=C(c1cnc(-n2cncn2)cn1)N(C1CC1)C1CCN(c2ncc(C(F)(F)F)cc2F)CC1` [Example 46] displayed an EC50 of 78 nM.
`O=C(c1cnc(-n2cncn2)nc1)N(C1CC1)C1CCN(c2ncc(C(F)(F)F)cc2F)CC1` [Example 47] displayed a half-maximal effective concentration (EC50) of 125 nM.
In turn, `Cc1ncn(-c2cnc(C(=O)N(C3CC3)C3CCN(c4ncc(C(F)(F)F)cc4F)CC3)cn2)n1` [Example 48] returned an EC50 of 27 nM.
Next, `Cc1nnnn1-c1ccc(C(=O)N(C2CC2)C2CCN(c3ncc(C(F)(F)F)cc3F)CC2)cn1` [Example 49]: 9 nM.
With `Cc1ncnn1-c1ncc(C(=O)N(C2CC2)C2CCN(c3ncc(C(F)(F)F)cc3F)CC2)cn1` [Example 50], the concentration giving a half-maximal response (EC50) was determined as 148 nM.
To `Cc1nccn1-c1ccc(C(=O)N(C2CC2)C2CCN(c3nc(C(C)C)no3)CC2)cn1` [Example 51] belongs 593 nM; to `Cc1ncnn1-c1ccc(C(=O)N(C2CC2)C2CCN(c3nc(C(C)C)no3)CC2)cn1` [Example 52], 231 nM.
Regarding `Cc1nccn1-c1cnc(C(=O)N(C2CC2)C2CCN(c3nc(C(C)C)no3)CC2)cn1` [Example 53], the EC50 amounted to 808 nM.
As to `CC(C)c1noc(N2CCC(N(C(=O)c3cnc(-n4cncn4)cn3)C3CC3)CC2)n1` [Example 54], the midpoint of the response, the EC50, lay at 812 nM.
The molecule `Cc1nccn1-c1ncc(C(=O)N(C2CC2)C2CCN(c3nc(C(C)C)no3)CC2)cn1` [Example 55] had an EC50 of 512 nM.
The molecule `Cc1ncn(-c2cnc(C(=O)N(C3CC3)C3CCN(c4nc(C(C)C)no4)CC3)cn2)n1` [Example 56] had an EC50 of 473 nM.
Regarding `Cc1nnnn1-c1ccc(C(=O)N(C2CC2)C2CCN(c3nc(C(C)C)no3)CC2)cn1` [Example 57], the response was half-maximal at 231 nM (EC50).
`CCc1cnc(N2CCC(N(C(=O)c3ccc(-n4ccnc4C)nc3)C3CC3)CC2)nc1` [Example 58] yielded an EC50 of 553 nM.
Molecule `CCc1cnc(N2CCC(N(C(=O)c3cnc(-n4ccnc4C)cn3)C3CC3)CC2)nc1` [Example 59] registered an EC50 of 1240 nM.
As to `CCc1cnc(N2CCC(N(C(=O)c3cnc(-n4cncn4)cn3)C3CC3)CC2)nc1` [Example 60], the EC50 worked out at 29 nM.
To `CCc1cnc(N2CCC(N(C(=O)c3cnc(-n4cncn4)nc3)C3CC3)CC2)nc1` [Example 61] belongs 98 nM; to `CCc1cnc(N2CCC(N(C(=O)c3cnc(-n4cnc(C)n4)cn3)C3CC3)CC2)nc1` [Example 62], 185 nM.
The molecule `Cc1nccn1-c1ccc(C(=O)N(C2CC2)C2CCN(c3ncc(Cl)cn3)CC2)cn1` [Example 63] yielded an EC50 of 385 nM.
`Cc1ncnn1-c1ccc(C(=O)N(C2CC2)C2CCN(c3ncc(Cl)cn3)CC2)cn1` [Example 64] came in with an EC50 of 252 nM.
`Cc1nccn1-c1cnc(C(=O)N(C2CC2)C2CCN(c3ncc(Cl)cn3)CC2)cn1` [Example 65] had an EC50 of 333 nM.
Next, `O=C(c1cnc(-n2cncn2)nc1)N(C1CC1)C1CCN(c2ncc(Cl)cn2)CC1` [Example 66]: 73 nM.

(Values after US8921398B2 (Boehringer Ingelheim International GmbH, priority 2011, dated 2014).)
